Converted amounts (≈) assume the structure as drawn. Where two headings read alike, the source gives them in different places. Numbered stars: 1 amine (or outer) side, 2 acyl side, 3 side chain; on linkers, the order of the positions; unused ones are H or OH. Bridge positions count the residues as written; N and C are the ends. Square brackets hold non-standard residues; d marks the D form. Peptide text beside a SMILES is read from it. * marks the point of attachment. Lys(Me,(CH2)4NMe(CH2)5CO) = CN(CCCCCC(=O)[*:3])CCCCN(C)CCCC[C@H](N[*:1])C(=O)[*:2]; Trp(7-Me) = Cc1cccc2c(C[C@H](N)C(=O)O)c[nH]c12; Sebacoyl = O=C(CCCCCCCCC(=O)[*:2])[*:1]; NH(CH2)9CO = O=C(CCCCCCCCCN[*:1])[*:2]; 2Nal = N[C@@H](Cc1ccc2ccccc2c1)C(=O)O; d2Nal = N[C@H](Cc1ccc2ccccc2c1)C(=O)O; C12 diacid = O=C(O)CCCCCCCCCCC(=O)*; 3Pal = N[C@@H](Cc1cccnc1)C(=O)O; 12Ado = NCCCCCCCCCCCC(=O)O; AEEEA = NCCOCCOCCOCC(=O)O; Aun = NCCCCCCCCCCC(=O)O; Thp = NC1(C(=O)O)CCOCC1; Me2NCH2CH2 = CN(C)CC*; Aib = CC(C)(N)C(=O)O; Sar = CNCC(=O)O

We go through seven molecules from US20260297129A1, “PEPTIDES AS SELECTIVE IL-23 RECEPTOR INHIBITORS” (SANOFI, priority 2023, published 2026).

The target in data set [1] is T1, human IL-23R (Homo sapiens, UniProt Q5VWK5).
T1 sequence (Q5VWK5 24-353 limits assumed): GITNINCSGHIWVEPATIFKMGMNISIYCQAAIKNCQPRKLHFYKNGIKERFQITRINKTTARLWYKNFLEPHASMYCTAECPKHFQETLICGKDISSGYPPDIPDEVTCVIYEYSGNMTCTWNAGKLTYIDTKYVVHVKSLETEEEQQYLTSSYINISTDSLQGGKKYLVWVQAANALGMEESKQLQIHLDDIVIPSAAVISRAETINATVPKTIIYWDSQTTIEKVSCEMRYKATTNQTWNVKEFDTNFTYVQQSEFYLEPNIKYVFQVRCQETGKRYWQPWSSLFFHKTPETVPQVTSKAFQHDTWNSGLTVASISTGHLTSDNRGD
Nature of the data set: Inhibition of IL-23 binding to IL-23R as measured by ELISA (Table 8). The conditions noted are these: human IL23 coated 1 μg/ml; human IL-23R-Fc 0.1 μg/ml; 60 min; read-out: Human ELISA IL23/IL23R IC50. On the procedure: Antagonism of compounds for human interleukin-23 receptor inhibitors, was determined by an ELISA assay.
A 384-well plate was coated with 50 μl/well of human IL23 at a final concentration of 1 μg/ml and incubated overnight at 4° C. The wells were washed 3 times with 80 μl wash buffer and blocked with 80 μl blocking buffer for 60 minutes at room temperature and washed again. 20 μl of serially diluted test peptides was added to each well and subsequently 20 μl of recombinant human IL-23R-Fc chimera at final concentration of 0.1 μg/ml. The plate was incubated for 60 minutes at room temperature. After the wells were washed, bound IL23R-Fc was detected with goat anti-hu-IgG1-HRP antibody. Signals were visualized with QUANTABLU fluorogenic peroxidase substrate.
(In an ELISA, binding on a coated surface is turned into a signal by an enzyme label.)

Data set [2] in a line: Solubility of peptide compounds in buffer formulations (Table 5). The data set is classed as physicochemical. The following applies: target 1 mg/ml. In short, it runs like this: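 Peptide solids, dried from DMSO stock, were taken up at 1 mg/mL in 50 mM HCl pH 1.2, or 50 mM phosphate pH 6.5 or pH 7.4. After 2 h gentle agitation and filtration (0.45 μm), solubility was determined by UHPLC-UV peak area against a DMSO standard of known concentration.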

The mark [3] stands for this setting: Buffer pH 1.1 (head; method: 50 mM HCl pH 1.2), 2 h agitation, read-out: Solubility, Buffer pH 1.1.
[4] abbreviates: aqueous buffer, 50 mM phosphate buffer pH 6.5, 2 h agitation, read-out: Solubility, Buffer pH 6.5.
[5] abbreviates: aqueous buffer, 50 mM phosphate buffer pH 7.4, 2 h agitation, read-out: Solubility, Buffer pH 7.4.

For orientation: solubility means the dissolved amount per volume that the medium holds. Take `Cc1cccc2c(C[C@@H]3NC(=O)COCCOCCOCCNC(=O)CC[C@@H](C(=O)N[C@@H](CC(N)=O)C(=O)N[C@@H](Cc4cccnc4)C(=O)N(C)CC(N)=O)NC(=O)C(C)(C)NC(=O)[C@H](Cc4ccc5ccccc5c4)NC(=O)[C@H](Cc4ccc(OCCN(C)C)cc4)NC(=O)C4(CCOCC4)NC(=O)[C@H](CCC(N)=O)NC3=O)c[nH]c12` [compound 14] ([AEEEA][Trp(7-Me)]Q[Thp]Y(Me2NCH2CH2)[2Nal][Aib]EN[3Pal][Sar]-NH2; lactam N-8): the IC50 in data set [1] was determined as 0.46 nM. Besides, the solubility at 2 h was no less than 1200 µg/mL in data set [2] (setting [3]), no less than 1280 µg/mL in data set [2] (setting [4]) and no less than 1270 µg/mL in data set [2] (setting [5]).
In the same order, the values of `Cc1cccc2c(C[C@@H]3NC(=O)CCCCCCCCCCCNC(=O)CC[C@@H](C(=O)N[C@@H](CC(N)=O)C(=O)N[C@@H](Cc4cccnc4)C(=O)N(C)CC(N)=O)NC(=O)C(C)(C)NC(=O)[C@H](Cc4ccc5ccccc5c4)NC(=O)[C@H](Cc4ccc(OCCN(C)C)cc4)NC(=O)C4(CCOCC4)NC(=O)[C@H](CCC(N)=O)NC3=O)c[nH]c12` [compound 2] ([12Ado][Trp(7-Me)]Q[Thp]Y(Me2NCH2CH2)[2Nal][Aib]EN[3Pal][Sar]-NH2; lactam N-8) are 0.32 nM, no less than 1140 µg/mL, 220 µg/mL (≈ 135 µM) and 10 µg/mL (≈ 6.13 µM).
As to `Cc1cccc2c(C[C@@H]3NC(=O)CCCCCCCCC(=O)NCCCC[C@@H](C(=O)N[C@@H](CC(N)=O)C(=O)N[C@@H](Cc4cccnc4)C(=O)N(C)CC(N)=O)NC(=O)C(C)(C)NC(=O)[C@H](Cc4ccc5ccccc5c4)NC(=O)[C@H](Cc4ccc(OCCN(C)C)cc4)NC(=O)C4(CCOCC4)NC(=O)[C@H](CCC(N)=O)NC3=O)c[nH]c12` [compound 11] ([Trp(7-Me)]Q[Thp]Y(Me2NCH2CH2)[2Nal][Aib]KN[3Pal][Sar]-NH2; linker N-7 via Sebacoyl), the IC50 in data set [1] was 0.62 nM. The solubility at 2 h in data set [2] (setting [3]) was no less than 940 µg/mL; in data set [2] (setting [4]), 330 µg/mL (≈ 204 µM); in data set [2] (setting [5]), 500 µg/mL (≈ 309 µM).
The corresponding values for `Cc1cccc2c(C[C@@H]3NC(=O)CCCCCCCCCCNC(=O)CC[C@@H](C(=O)N[C@@H](CC(N)=O)C(=O)N[C@@H](Cc4cccnc4)C(=O)N(C)CC(N)=O)NC(=O)C(C)(C)NC(=O)[C@@H](Cc4ccc5ccccc5c4)NC(=O)[C@H](Cc4ccc(OCCN(C)C)cc4)NC(=O)C4(CCOCC4)NC(=O)[C@H](CCC(N)=O)NC3=O)c[nH]c12` [compound 4] ([Aun][Trp(7-Me)]Q[Thp]Y(Me2NCH2CH2)[d2Nal][Aib]EN[3Pal][Sar]-NH2; lactam N-8) are 0.62 nM, no less than 970 µg/mL, 270 µg/mL (≈ 167 µM) and 60 µg/mL (≈ 37.1 µM).
In the same order, the values of `CC(=O)NCCCC[C@@H]1NC(=O)[C@H](Cc2c[nH]c3c(C)cccc23)NC(=O)CCCCCN(C)CCCCN(C)CCCC[C@@H](C(=O)N[C@@H](CC(N)=O)C(=O)N[C@@H](Cc2cccnc2)C(=O)N(C)CC(N)=O)NC(=O)C(C)(C)NC(=O)[C@H](Cc2ccc3ccccc3c2)NC(=O)[C@H](Cc2ccc(OCCN(C)C)cc2)NC(=O)C2(CCOCC2)NC1=O` [compound 18] ([Trp(7-Me)]K(Ac)[Thp]Y(Me2NCH2CH2)[2Nal][Aib][Lys(Me,(CH2)4NMe(CH2)5CO)]N[3Pal][Sar]-NH2; lactam N-7) are 0.68 nM, no less than 1060 µg/mL, no less than 980 µg/mL and no less than 990 µg/mL.
In the case of `Cc1cccc2c(C[C@@H]3NC(=O)CCCCCCCCCCC(=O)NCCCC[C@@H](C(=O)N[C@@H](CC(N)=O)C(=O)N[C@@H](Cc4cccnc4)C(=O)N(C)CC(N)=O)NC(=O)C(C)(C)NC(=O)[C@H](Cc4ccc5ccccc5c4)NC(=O)[C@H](Cc4ccc(OCCN(C)C)cc4)NC(=O)C4(CCOCC4)NC(=O)[C@H](CCC(N)=O)NC3=O)c[nH]c12` [compound 10] ([Trp(7-Me)]Q[Thp]Y(Me2NCH2CH2)[2Nal][Aib]KN[3Pal][Sar]-NH2; linker N-7 via C12 diacid), in data set [1], the IC50 is 0.55 nM. Further, the solubility at 2 h in data set [2] (setting [3]) was no less than 890 µg/mL; in data set [2] (setting [4]) it was 240 µg/mL (≈ 146 µM); in data set [2] (setting [5]) it was 70 µg/mL (≈ 42.6 µM).
As to `Cc1cccc2c(C[C@@H]3NC(=O)CCCCCCCCCNC(=O)CC[C@@H](C(=O)N[C@@H](CC(N)=O)C(=O)N[C@@H](Cc4cccnc4)C(=O)N(C)CC(N)=O)NC(=O)C(C)(C)NC(=O)[C@H](Cc4ccc5ccccc5c4)NC(=O)[C@H](Cc4ccc(OCCN(C)C)cc4)NC(=O)C4(CCOCC4)NC(=O)[C@H](CC(C)C)NC3=O)c[nH]c12` [compound 8] ([NH(CH2)9CO][Trp(7-Me)]L[Thp]Y(Me2NCH2CH2)[2Nal][Aib]EN[3Pal][Sar]-NH2; lactam N-8), the IC50 in data set [1] is 1.69 nM. Also, the solubility at 2 h in data set [2] (setting [3]) is 20 µg/mL (≈ 12.6 µM); in data set [2] (setting [4]) it was less than 10 µg/mL; in data set [2] (setting [5]), less than 10 µg/mL.
